# Test results taken from ChEMBL document CHEMBL1201862, “PubChem BioAssay data set” (2004).
# The source made the active and inactive calls.
# Assays:
# [1] = Luminescence-based cell-based high throughput dose response assay to identify activators of the DAF-12 from the parasite S. stercoralis (ssDAF-12).; format: functional
# [2] = target: T1, Oxysterols receptor LXR-beta (Homo sapiens, UniProt P55055); assay: LXR agonists, Gal4 luciferase reporter, dose response, counter-screen for ssDAF-12 agonist project, cell-based, luminescence, HEK293, S. stercoralis campaign (AID 720737); format: functional; conditions: read-out: IC50 (the source's name)
# T1 sequence (P55055 whole entry): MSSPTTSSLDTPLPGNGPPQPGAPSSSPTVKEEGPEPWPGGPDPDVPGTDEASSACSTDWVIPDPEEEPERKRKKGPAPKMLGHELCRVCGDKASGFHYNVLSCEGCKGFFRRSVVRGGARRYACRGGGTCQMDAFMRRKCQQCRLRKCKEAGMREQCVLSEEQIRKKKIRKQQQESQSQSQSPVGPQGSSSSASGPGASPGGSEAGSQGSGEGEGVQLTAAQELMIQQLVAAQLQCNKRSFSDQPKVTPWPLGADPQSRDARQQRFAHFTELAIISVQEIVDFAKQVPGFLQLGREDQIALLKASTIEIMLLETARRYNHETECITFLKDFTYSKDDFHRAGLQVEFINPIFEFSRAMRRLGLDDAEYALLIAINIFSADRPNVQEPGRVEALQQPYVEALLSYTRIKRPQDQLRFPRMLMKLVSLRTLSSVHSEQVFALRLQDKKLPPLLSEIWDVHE
# Kallikrein-7 = Kallikrein-7 (Homo sapiens, UniProt P49862); assay: Fluorescence Intensity-based biochemical primary high throughput dose response assay to identify activators of kallikrein-7 (K7) zymogen.
# Chain of Kallikrein-7 (P49862 whole entry): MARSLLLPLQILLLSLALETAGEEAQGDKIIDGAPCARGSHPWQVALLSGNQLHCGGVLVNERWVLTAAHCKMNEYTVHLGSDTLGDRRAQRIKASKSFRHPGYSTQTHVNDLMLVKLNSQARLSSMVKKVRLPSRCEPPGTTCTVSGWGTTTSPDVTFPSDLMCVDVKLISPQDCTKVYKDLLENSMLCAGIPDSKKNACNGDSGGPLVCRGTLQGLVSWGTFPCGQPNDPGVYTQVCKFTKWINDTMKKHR
# cells = format: functional
# [3] = A549 cell cytotoxicity, dose response, cytotoxicity control, plate reader, cherry-pick, antagonist series (AID 743412); format: functional, cell-based
# [4] = LGR2 antagonists, dose response, cell-based, HEK293, CRE-luciferase reporter, cherry pick, set 2 (AID 743343); format: functional;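 further: transfected cells were stimulated with diluted bursicon conditioned medium after compound addition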
# [5] = MC4R antagonists, dose response, counter-screen for LGR2 antagonist project, cell-based, plate reader, cherry pick (AID 743444); format: functional;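 further: transfected HEK 293 cells stimulated with alpha-MSH peptide; potency of inhibitors of the alpha-MSH evoked signal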
# [6] = HEK293 cell cytotoxicity, dose response, cytotoxicity control, plate reader, cherry-picked samples (AID 743446); format: functional, cell-based
# Paired box protein Pax-8 = Paired box protein Pax-8 (Homo sapiens, UniProt Q06710); assay: inhibitors of PAX8-driven TPO luciferase reporter, dose response, RMG-I cells, cherry-pick (AID 687027); format: functional, cell-based;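 further: luciferase reporter driven by Pax8 target thyroperoxidase promoter measured by SteadyGlo luminescence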
# Chain of Paired box protein Pax-8 (Q06710 whole entry): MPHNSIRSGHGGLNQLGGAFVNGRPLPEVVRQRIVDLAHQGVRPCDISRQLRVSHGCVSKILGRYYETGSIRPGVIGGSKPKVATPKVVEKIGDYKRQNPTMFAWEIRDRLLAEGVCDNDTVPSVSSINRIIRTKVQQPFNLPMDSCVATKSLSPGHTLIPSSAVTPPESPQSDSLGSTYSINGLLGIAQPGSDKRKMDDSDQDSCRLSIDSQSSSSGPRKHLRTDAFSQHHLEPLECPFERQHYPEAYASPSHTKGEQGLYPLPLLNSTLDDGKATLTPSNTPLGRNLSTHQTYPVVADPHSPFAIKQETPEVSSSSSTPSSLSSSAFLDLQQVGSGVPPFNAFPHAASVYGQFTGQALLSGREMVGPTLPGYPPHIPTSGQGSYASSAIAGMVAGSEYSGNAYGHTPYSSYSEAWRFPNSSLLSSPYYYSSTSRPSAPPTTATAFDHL
# [7] = NIH:OVCAR-3 ovarian cancer cell cytotoxicity, dose response, PAX8 inhibitor project, plate reader, dry powder samples (AID 743044); format: functional, cell-based
# [8] = non-specific cell cytotoxicity, dose response, cytotoxicity control for PAX8 inhibitor project, plate reader, dry powder samples (AID 743021); format: functional, cell-based
# [9] = Vero cell cytotoxicity, dose response, cytotoxicity control for Vif-APOBEC3G degradation inhibitor project, Vero cells (AID 1117358); format: functional; conditions: Human immunodeficiency virus 1, Vero
# [10] = target: T2, DNA repair and recombination protein RAD54-like (Homo sapiens, UniProt Q92698); assay: inhibitors of human RAD54 branch migration, confirmation, biochemical, fluorescence, cherry-picked samples, dose series (AID 651657); format: functional
# T2 sequence (Q92698 whole entry): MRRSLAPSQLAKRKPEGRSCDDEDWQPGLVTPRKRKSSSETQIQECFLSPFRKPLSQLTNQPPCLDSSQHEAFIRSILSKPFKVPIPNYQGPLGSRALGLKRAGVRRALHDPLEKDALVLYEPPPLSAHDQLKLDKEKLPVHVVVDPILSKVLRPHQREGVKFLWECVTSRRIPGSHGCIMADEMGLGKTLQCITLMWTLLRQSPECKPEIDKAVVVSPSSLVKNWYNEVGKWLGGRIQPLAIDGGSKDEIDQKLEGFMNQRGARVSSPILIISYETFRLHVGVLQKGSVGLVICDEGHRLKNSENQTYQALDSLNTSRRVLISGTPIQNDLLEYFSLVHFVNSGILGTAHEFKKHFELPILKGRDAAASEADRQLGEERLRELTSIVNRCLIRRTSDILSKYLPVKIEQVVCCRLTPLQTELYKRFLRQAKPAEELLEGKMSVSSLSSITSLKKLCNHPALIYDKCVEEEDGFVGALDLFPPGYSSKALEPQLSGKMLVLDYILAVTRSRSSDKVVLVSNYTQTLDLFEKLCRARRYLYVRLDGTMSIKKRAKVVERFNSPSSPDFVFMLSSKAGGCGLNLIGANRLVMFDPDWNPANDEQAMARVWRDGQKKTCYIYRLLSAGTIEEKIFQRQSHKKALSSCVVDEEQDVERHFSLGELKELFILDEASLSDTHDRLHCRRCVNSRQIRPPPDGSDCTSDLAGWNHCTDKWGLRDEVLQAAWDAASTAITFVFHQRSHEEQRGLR
# [11] = target: T3, Histone-lysine N-methyltransferase NSD2 (Homo sapiens, UniProt O96028); format: biochemical
# T3 sequence (O96028 whole entry): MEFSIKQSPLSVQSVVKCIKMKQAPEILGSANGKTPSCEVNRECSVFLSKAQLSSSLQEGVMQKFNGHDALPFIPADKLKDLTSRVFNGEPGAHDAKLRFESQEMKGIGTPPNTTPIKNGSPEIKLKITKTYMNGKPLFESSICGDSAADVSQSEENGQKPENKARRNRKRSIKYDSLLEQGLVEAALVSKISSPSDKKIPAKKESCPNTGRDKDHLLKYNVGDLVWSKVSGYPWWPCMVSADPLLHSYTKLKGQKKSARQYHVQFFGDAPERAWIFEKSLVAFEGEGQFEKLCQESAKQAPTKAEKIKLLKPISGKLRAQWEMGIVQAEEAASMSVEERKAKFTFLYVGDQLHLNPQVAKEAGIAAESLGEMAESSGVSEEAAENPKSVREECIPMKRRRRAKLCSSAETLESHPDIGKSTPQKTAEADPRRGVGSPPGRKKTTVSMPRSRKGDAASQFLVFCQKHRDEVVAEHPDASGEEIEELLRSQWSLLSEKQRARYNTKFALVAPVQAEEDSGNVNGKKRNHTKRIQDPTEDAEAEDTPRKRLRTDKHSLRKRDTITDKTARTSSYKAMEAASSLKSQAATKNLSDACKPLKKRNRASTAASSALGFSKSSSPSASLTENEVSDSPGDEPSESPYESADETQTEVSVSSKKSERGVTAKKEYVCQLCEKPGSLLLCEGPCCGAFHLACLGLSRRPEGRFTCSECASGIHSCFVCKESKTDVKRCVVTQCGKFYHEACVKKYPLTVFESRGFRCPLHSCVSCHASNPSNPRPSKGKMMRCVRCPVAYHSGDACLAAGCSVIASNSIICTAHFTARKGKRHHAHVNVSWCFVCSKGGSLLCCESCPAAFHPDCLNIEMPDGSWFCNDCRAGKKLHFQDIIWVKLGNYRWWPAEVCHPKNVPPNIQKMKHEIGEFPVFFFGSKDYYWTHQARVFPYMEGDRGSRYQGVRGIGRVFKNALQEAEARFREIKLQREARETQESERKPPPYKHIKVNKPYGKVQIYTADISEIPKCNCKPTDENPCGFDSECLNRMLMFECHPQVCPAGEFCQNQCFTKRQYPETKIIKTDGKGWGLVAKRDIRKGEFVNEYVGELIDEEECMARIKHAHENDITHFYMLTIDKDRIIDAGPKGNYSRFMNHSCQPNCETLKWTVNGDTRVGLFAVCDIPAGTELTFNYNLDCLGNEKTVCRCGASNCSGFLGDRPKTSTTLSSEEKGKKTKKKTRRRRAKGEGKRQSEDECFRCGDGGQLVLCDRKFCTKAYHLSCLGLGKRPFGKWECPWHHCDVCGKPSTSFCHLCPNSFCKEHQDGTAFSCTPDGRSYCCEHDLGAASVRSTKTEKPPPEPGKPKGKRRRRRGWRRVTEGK
# [12] = P. falciparum 3D7-ScDHODH growth inhibitors, dose response, SYBR Green, dry powder samples (AID 1159570); format: functional, cell-based;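 further: parasite growth measured after 72 hours of compound exposure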
# [13] = P. falciparum Dd2 growth inhibitors, dose response, SYBR Green, cherry-picked samples (AID 1159567); format: functional, cell-based
# [14] = P. falciparum Dd2 growth inhibitors, dose response, SYBR Green, dry powder samples (AID 1159566); format: functional, cell-based;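 further: potency for growth inhibition with lower SYBR green DNA signal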
# [15] = P. falciparum ATP4 D1247Y mutant growth inhibitors, dose response, NITD609-resistant line, SYBR Green, dry powder (AID 1159571); format: functional, cell-based;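 further: parasites synchronized at ring stage by sorbitol before testing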
# Protein Tat = target: T4, Protein Tat (Human immunodeficiency virus type 1 group M subtype B (isolate HXB2)(HIV-1), UniProt P04608); format: functional;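 further: tat binding to TAR RNA read out by fluorescence polarization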
# T4 sequence (P04608 whole entry): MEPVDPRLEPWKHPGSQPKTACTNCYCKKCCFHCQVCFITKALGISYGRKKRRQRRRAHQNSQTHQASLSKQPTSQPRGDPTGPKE
# Nonstructural protein 1 = Nonstructural protein 1 (Influenza A virus, UniProt Q194T2); format: functional, Influenza A virus (A/California/07/2009(H1N1))
# Chain of Nonstructural protein 1 (Q194T2 whole entry): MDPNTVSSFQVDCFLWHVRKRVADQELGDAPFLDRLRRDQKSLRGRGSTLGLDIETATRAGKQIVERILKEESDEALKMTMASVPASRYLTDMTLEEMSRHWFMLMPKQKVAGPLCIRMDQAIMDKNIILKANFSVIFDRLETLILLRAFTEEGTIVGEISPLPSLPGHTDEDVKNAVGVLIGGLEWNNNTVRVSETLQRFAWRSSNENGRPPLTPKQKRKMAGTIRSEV
# BJ [16] = assay: cytotoxicity toward BJ-TERT fibroblasts, dose response, cell-based, RAS-independent, luminescence (AID 1933); format: functional; conditions: Homo sapiens
# BJ [17] = assay: cells; format: functional, cell-based; conditions: Homo sapiens
# BJ [18] = assay: cytotoxicity toward BJ-TERT-LT-ST fibroblasts, dose response, cell-based, RAS-independent, luminescence (AID 1935); format: functional; conditions: Homo sapiens;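 further: BJ fibroblasts immortalized with TERT plus LT and ST oncogenes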
# [19] = cytotoxicity toward DRD oncogenic fibroblasts, dose response, cell-based, non-viral oncogenic, luminescence (AID 1934); format: functional; conditions: Homo sapiens
# [20] = HepG2 cell cytotoxicity, dose response, cytotoxicity control, plate reader, cherry-pick, antagonist series (AID 743416); format: functional, cell-based
# [21] = target: T5, Mannose-6-phosphate isomerase (Homo sapiens, UniProt P34949); assay: human PMI inhibitors, high substrate, primary screen, biochemical, fluorescence intensity, high mannose 6-phosphate (AID 1220)
# T5 sequence (P34949 whole entry): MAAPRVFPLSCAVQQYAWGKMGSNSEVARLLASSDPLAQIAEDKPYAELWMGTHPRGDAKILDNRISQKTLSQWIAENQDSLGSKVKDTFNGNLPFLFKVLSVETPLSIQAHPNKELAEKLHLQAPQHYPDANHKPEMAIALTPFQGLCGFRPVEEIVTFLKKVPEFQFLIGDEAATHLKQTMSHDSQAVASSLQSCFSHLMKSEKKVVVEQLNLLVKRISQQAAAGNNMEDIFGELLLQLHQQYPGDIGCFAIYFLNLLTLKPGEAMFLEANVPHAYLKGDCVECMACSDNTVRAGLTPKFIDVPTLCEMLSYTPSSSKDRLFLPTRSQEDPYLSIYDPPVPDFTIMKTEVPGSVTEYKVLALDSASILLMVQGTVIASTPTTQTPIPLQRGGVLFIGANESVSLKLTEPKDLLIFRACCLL
smiles,measurement,setting,value
CCCCCCC1(C)N=C(S)N(c2ccccc2)N1 (centres undefined),IC50,[1],> 67.6 µM (inactive)
same,EC50,[2],> 67.6 µM (inactive)
O=C(O)CCc1nn2c3ccccc3nc2n(CCN2CCCCC2)c1=O,EC50,Kallikrein-7,34.8 µM (inactive)
O=C(COc1ccc2c(c1)CCC2)Nc1ccccn1,IC50,cells,39.2 µM (active)
same,AC50,[3],45.3 µM (active)
same,AC50,[4],7.18 µM (active)
same,AC50,[5],6.74 µM (active)
same,AC50,[6],33.3 µM (active)
CC(C)CC#Cc1ccc2c(c1)O[C@H](CN(C)Cc1ccc(C(=O)O)cc1)[C@@H](C)CN([C@H](C)CO)S2(=O)=O,AC50,Paired box protein Pax-8,19.3 µM (active)
same,AC50,[7],57.2 µM (active)
same,AC50,[8],48 µM (active)
COC(=O)c1cc(-c2ccc(OC)cc2)nc2nc(SC)[nH]c(=O)c12,EC50,Kallikrein-7,48 µM (inactive)
COC(=O)C1=C(N)Oc2cc(C)n(Cc3cccnc3)c(=O)c2C1c1cccc(OC)c1OC (centres undefined),CC50,[9],> 40 µM (active)
CCNCCNc1ccc([N+](=O)[O-])c2cccnc12,AC50,[10],29.7 µM (active)
same,AC50,[11],13.6 µM (active)
C(=N\Nc1nc2ccccc2s1)/c1ccc2c(c1)OCO2,IC50,[1],> 67.5 µM (inactive)
same,EC50,[2],> 67.5 µM (inactive)
C[C@@H]1CN([C@H](C)CO)C(=O)c2cc(NS(=O)(=O)c3ccc(Cl)cc3)ccc2O[C@@H](C)CCCCO[C@@H]1CN(C)Cc1ccccc1,AC50,Paired box protein Pax-8,4.7 µM (active)
same,AC50,[8],43 µM (active)
COc1ccc(C#Cc2ccc3c(c2)[C@H]2[C@H](CCN2C(=O)C2CCCC2)[C@@H](CO)N3)cc1,AC50,[12],1.99 µM (active)
same,AC50,[13],2.04 µM (active)
same,AC50,[14],1.67 µM (active)
same,AC50,[15],2.2 µM (active)
CC(C)CN(C(=O)CN1CCN(c2ccc(O)cc2)CC1)c1c(N)n(CC(C)C)c(=O)[nH]c1=O,IC50,Protein Tat,> 100 µM (active)
O=C1CC(Nc2ccc(N3CCOCC3)cc2)C(=O)N1c1cccc(C(F)(F)F)c1 (centres undefined),IC50,Nonstructural protein 1,> 100 µM (active)
same,IC50,Protein Tat,29.5 µM (inconclusive)
CCc1cc2c(N3CCCCC3)ncnc2s1,CC50,[9],> 40 µM (active)
O=C(/C=C/c1cccs1)Nc1ccc(Br)cn1,EC50,BJ [16],0.417 µM (inconclusive)
same,EC50,BJ [17],25.5 µM (inconclusive)
same,EC50,BJ [18],10.2 µM (inconclusive)
same,EC50,[19],0.373 µM (inconclusive)
same,CC50,[9],> 40 µM (active)
Cc1cccc(N2CCN(C(=O)C3CCN(c4ncnc5c4nc4n5CCCCC4)CC3)CC2)c1C,AC50,[3],35 µM (active)
same,AC50,[20],34.2 µM (active)
same,AC50,[4],31.3 µM (active)
same,AC50,[5],35.8 µM (active)
same,AC50,[6],27.1 µM (active)
COc1c(N2CCN(C(=S)Nc3ccccc3F)C(C)C2)c(F)cc2c(=O)c(C(=O)O)cn(C3CC3)c12 (centres undefined),EC50,Kallikrein-7,> 69.5 µM (inactive)
Oc1ccc2ccccc2c1/C=N\C1CCCCC1,IC50,[21],23.3 µM (active)
COc1ccc2c3c(n(C)c2c1)[C@@H](CO)N(C(=O)Nc1ccc(F)cc1)CC31CCN(Cc2ccccn2)CC1,AC50,[12],1.69 µM (active)
same,AC50,[13],3.18 µM (active)
same,AC50,[14],2.05 µM (active)
same,AC50,[15],2.11 µM (active)
CC1CC(C)CN(C(=O)c2cc3c(=O)n4ccccc4nc3s2)C1 (centres undefined),EC50,Kallikrein-7,> 69.5 µM (inactive)
